Experimental findings from patent publication US11787778B2, “Bi-functional compounds and methods for targeted ubiquitination of androgen receptor” (MONTELINO THERAPEUTICS, INC., priority 2019, dated 2023) are described below.

Like-named read-outs stand apart in the source and are kept apart here. Where a SMILES comes first, the peptide text is derived from it. [ ]: non-standard residue; d: D form. The star is where a group is joined. X1 = O=C(COc1c(-c2csc(N3CCOCC3)n2)ccc(F)c1F)NCCCCCCN*; X2 = Fc1ccc(-c2csc(N3CCOCC3)n2)c(OCCOCCOCCN*)c1F; Dip = N[C@H](C(=O)O)C(c1ccccc1)c1ccccc1; Chg = N[C@H](C(=O)O)C1CCCCC1; NMeA = CN[C@@H](C)C(=O)O Bounds are passed on as bounds.

The test system of this assay is 22Rv1. Kind of assay: 22Rv1 cell count decrease. The class given is cell-based. The settings on record: Homo sapiens. As for the experimental part:
The human prostate cancer cell line, 22Rv1 has been reported to express a high level of AR-V7. […] Standard culture media was RPMI-1640 supplemented with 10% fetal bovine serum. The test compound initially was dissolved in DMSO at 50 mM. This stock solution was then diluted as needed for the indicated concentrations. […]

Where [1] appears, read: read-out: 22Rv1 cell count decrease at 10 uM for 48 hours, 22Rv1 cells, 10 uM, read-out: 22Rv1 cell count decrease at 10 uM.

In the case of `CN[C@@H](C)C(=O)N[C@H](C(=O)N1CCC[C@H]1C(=O)N[C@H](C(=O)NCCOCCOCCOc1c(-c2csc(N3CCOCC3)n2)ccc(F)c1F)C(c1ccccc1)c1ccccc1)C1CCCCC1` [Example 24, (S)-1-((S)-2-cyclohexyl-2-((S)-2-(methylamino)propanamido)acetyl)-N-((S)-1-((2-(2-(2-(2,3-difluoro-6-(2-morpholinothiazol-4-yl)phenoxy)ethoxy)ethoxy)ethyl)amino)-1-oxo-3,3-diphenylpropan-2-yl)pyrrolidine-2-carboxamide] (H-[NMeA][Chg]P[Dip]-X2), the inhibition at 10 µM (22Rv1, read-out: 22Rv1 cell count decrease at 10 uM for 48 hours) was above 50%.

As for `CN[C@@H](C)C(=O)N[C@H](C(=O)N1CCC[C@H]1C(=O)N[C@H](C(=O)NCCCCCCNC(=O)COc1c(-c2csc(N3CCOCC3)n2)ccc(F)c1F)C(c1ccccc1)c1ccccc1)C1CCCCC1` [Example 26, (S)-1-((S)-2-cyclohexyl-2-((S)-2-(methylamino)propanamido)acetyl)-N-((S)-1-((6-(2-(2,3-difluoro-6-(2-morpholinothiazol-4-yl)phenoxy)acetamido)hexyl)amino)-1-oxo-3,3-diphenylpropan-2-yl)pyrrolidine-2-carboxamide] (H-[NMeA][Chg]P[Dip]-X1), under setting [1], the inhibition at 10 µM was above 50%.

As for `O=C1CCC(N2C(=O)c3cccc(NCCCCCCNC(=O)c4cn(-c5csc(N6CCOCC6)n5)cn4)c3C2=O)C(=O)N1` (stereo not drawn) [Example 32, N-(6-((2-(2,6-dioxopiperidin-3-yl)-1,3-dioxoisoindolin-4-yl)amino)hexyl)-1-(2-morpholinothiazol-4-yl)-1H-imidazole-4-carboxamide], the inhibition at 10 µM under setting [1] lay within 0 to 20%.
